Columns and labels:
ABHD12 [1] = molecular target: T1, ABHD12 (Mus musculus, UniProt Q99LR1); experiment: Gel-based competitive ABPP, JJH350 probe vs brain membrane proteome; assay type: biochemical; conditions: read-out: IC50 (ABPP gel_JJH350 probe vs brain mem)
T1 construct: from tissue; host or cells: brain membrane proteome
T1 sequence (Q99LR1 1-398): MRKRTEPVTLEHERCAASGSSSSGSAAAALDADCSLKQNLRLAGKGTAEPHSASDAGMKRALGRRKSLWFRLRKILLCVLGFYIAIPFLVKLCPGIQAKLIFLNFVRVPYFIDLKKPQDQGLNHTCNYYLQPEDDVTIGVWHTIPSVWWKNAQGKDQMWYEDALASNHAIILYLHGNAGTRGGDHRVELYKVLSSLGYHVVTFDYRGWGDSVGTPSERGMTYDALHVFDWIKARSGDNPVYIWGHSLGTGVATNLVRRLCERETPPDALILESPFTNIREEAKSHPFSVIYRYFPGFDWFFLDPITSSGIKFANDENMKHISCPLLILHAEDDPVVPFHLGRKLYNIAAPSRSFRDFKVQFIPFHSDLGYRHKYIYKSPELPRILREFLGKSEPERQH
Outline: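 Mouse membrane proteome (1 mg/mL) labeled 45 min at 37 °C with alkyne probe JJH350 (2 μM final) or FP-Rh (1 μM final). JJH350 targets were visualized after CuAAC with rhodamine-azide (1 h, room temperature), SDS-PAGE (10%) and in-gel fluorescence scanning, with band intensities quantified.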

ABHD12 [2] = molecular target: T2, ABHD12 (Homo sapiens, UniProt Q8N2K0); experiment: Lyso-PS hydrolysis assay (substrate-based), ABHD12-overexpressing HEK293T membrane lysate; assay type: biochemical; conditions: 17:1 lyso-PS substrate; ABHD12-overexpressed HEK lysate; read-out: IC50 (Substrate-based assay_ABHD12-overexpressed HEK lysate)
T2 construct: expressed in transfected cells; host or cells: HEK293T
T2 sequence (Q8N2K0 1-398): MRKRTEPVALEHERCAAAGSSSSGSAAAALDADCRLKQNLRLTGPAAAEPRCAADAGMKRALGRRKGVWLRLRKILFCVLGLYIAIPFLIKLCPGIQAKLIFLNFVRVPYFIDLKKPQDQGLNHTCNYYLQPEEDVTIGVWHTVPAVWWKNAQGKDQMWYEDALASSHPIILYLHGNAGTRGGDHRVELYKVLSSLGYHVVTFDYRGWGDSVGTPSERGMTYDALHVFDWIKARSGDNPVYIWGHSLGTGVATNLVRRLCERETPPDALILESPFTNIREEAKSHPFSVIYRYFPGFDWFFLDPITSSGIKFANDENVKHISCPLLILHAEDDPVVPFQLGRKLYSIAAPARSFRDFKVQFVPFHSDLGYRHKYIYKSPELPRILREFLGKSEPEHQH
Description: Lyso-PS Hydrolysis Assay:
The lyso-PS lipase activity of ABHD12 was determined as previously described (Blankman, J. L., Long, J. Z., Trauger, S. A., Siuzdak, G. & Cravatt, B. F. ABHD12 controls brain lysophosphatidylserine pathways that are deregulated in a murine model of the neurodegenerative disease PHARC. Proc. Natl. Acad. Sci. U. S. A. 110, 1500-1505, doi:10.1073/pnas.1217121110 (2013)) with some minor modifications. The proteome concentrations were adjusted to 0.25 mg/mL (ABHD12-overexpressing HEK293T membrane) or 0.5 mg/mL (mouse brain membrane) in Dulbecco's phosphate-buffered saline (DPBS) (80 μL/reaction). 20 μL of 500 μM 17:1 lyso-PS in DPBS was added to each reaction (100 μM final concentration) and incubated at 37° C. After 30 min, the reaction was quenched with 400 μL of 2:1 CHCl3/MeOH (v/v) with 1 nmol 15:0 FFA as an internal standard. The mixture was vortexed and centrifuged at 1,400× g to separate the aqueous and organic phase. The organic phase was analyzed by LC-MS (1200 LC/MSD, Agilent Technologies). The separation of the analyte was achieved using a 50 mm×4.6 mm 5 μm Gemini C18 column (Phenomenex) coupled to a guard column (Gemini: C18: 4×3 mm). The LC solvents were as follows: buffer A, […] (95:5, v/v) with 0.1% NH4OH (v/v); and buffer B, iPrOH:MeOH:H2O (60:3 5:5, v/v/v) with 0.1% NH4OH (v/v). The LC method consisted of 0.1 mL/min 20% buffer B for 1.0 min, 0.4 ml/min isocratic mode of 100% buffer B over 7 min and equilibration with 0.5 mL/min 100% buffer A for 3 min. The MS analyses were performed using an electrospray ionization source (ESI) in negative ion mode to measure product formation. MS data were acquired in selected ion monitoring mode at m/z 267.20 for 17:1 FFA and m/z 241.20 for 15:0 FFA.

Structure (SMILES)	IC50 (ABHD12 [1]) [nM]	IC50 (ABHD12 [2]) [nM]
N#Cc1c(Oc2ccc(OC(F)(F)F)cc2)ccnc1N1CCC(NC(=S)Nc2cccnc2)CC1 [Example 71, 1-(1-(3-Cyano-4-(4-(trifluoromethoxy)phenoxy)pyridin-2-yl)piperidin-4-yl)-3-(pyridin-3-yl)thiourea]	100 to 1000	100 to 1000
Cc1c(Oc2ccc(OC(F)(F)F)cc2)ccnc1N1CCC(NC(=S)Nc2cccnc2)CC1 [Example 72, 1-(1-(3-Methyl-4-(4-(trifluoromethoxy)phenoxy)pyridin-2-yl)piperidin-4-yl)-3-(pyridin-3-yl)thiourea]	≤ 100	≤ 100
COc1ccc(Oc2ccnc(N3CCC(NC(=S)Nc4cccnc4)CC3)c2)cc1 [Example 74, 1-(1-(4-(4-Methoxyphenoxy)pyridin-2-yl)piperidin-4-yl)-3-(pyridin-3-yl)thiourea]	1000 to 25000	1000 to 25000

The remaining lines, values ahead:

IC50 (ABHD12 [1]) [nM]	IC50 (ABHD12 [2]) [nM]	Structure (SMILES)
≤ 100	≤ 100	FC(F)(F)Oc1ccc(Oc2ccnc(N3CCC(NC(=S)Nc4cccnc4)CC3)c2Cl)cc1Cl [Example 65, 1-(1-(3-Chloro-4-(3-chloro-4-(trifluoromethoxy)phenoxy)pyridin-2-yl)piperidin-4-yl)-3-(pyridin-3-yl)thiourea]
≤ 100	100 to 1000	FC(F)(F)Oc1cccc(Oc2ccnc(N3CCC(NC(=S)Nc4cccnc4)CC3)c2Cl)c1 [Example 66, 1-(1-(3-Chloro-4-(3-(trifluoromethoxy)phenoxy)pyridin-2-yl)piperidin-4-yl)-3-(pyridin-3-yl)thiourea]
≤ 100	100 to 1000	FC(F)(F)Oc1ccccc1Oc1ccnc(N2CCC(NC(=S)Nc3cccnc3)CC2)c1Cl [Example 67, 1-(1-(3-Chloro-4-(2-(trifluoromethoxy)phenoxy)pyridin-2-yl)piperidin-4-yl)-3-(pyridin-3-yl)thiourea]
